The test system of test [1] is vessel. The following applies: literature report; cited from earlier work.
In test [2] the test system is rabbit aorta rings. The experiment in a line: Vasorelaxant effect in vitro (rabbit aorta rings, phenylephrine-induced contraction). The following applies: Oryctolagus cuniculus; concentration reducing the height of the phenylephrine-induced contraction of rabbit aorta rings by 50%; 0.1% DMSO. The procedure: Rabbits are stunned by a blow to the neck and exsanguinated. The aorta is removed, freed from adhering tissue and divided into rings of a width of 1.5 mm. The rings are placed individually under an initial tension in 5 ml organ baths with Krebs-Henseleit solution which is at 37° C., is gassed with carbogen and has the following composition (in each case mM): NaCl: 119; KCl: 4.8; CaCl2×2H2O: 1; MgSO4×7H2O: 1.4; KH2PO4: 1.2; NaHCO3: 25; glucose: 10. The force of contraction is detected with Statham UC2 cells, amplified and digitized via A/D converters (DAS-1802 HC, Keithley Instruments, Munich) and recorded in parallel on chart recorders. Contractions are induced by cumulatively adding increasing concentrations of phenylephrine to the bath. After several control cycles, the substance to be investigated is added in each further run in increasing dosage, and the height of the contraction achieved is compared with the height of the contraction reached in the last preceding one. The concentration necessary to reduce the height of the control value by 50% is calculated from this (IC50 value). The standard application volume is 5 μl, the proportion of DMSO in the bath solution corresponds to 0.1%.

Take `Fc1ccccc1Cn1nc(-c2nnn[nH]2)c2cccnc21` [1-(2-fluorobenzyl)-3-(1H-tetrazol-5-yl)-1H-pyrazolo[3,4-b]pyridine]: in test [1], the vessel-relaxing effect result was “moderate”.

One may read the IC50 as the midpoint of a concentration-inhibition curve. High values mean lower potency, low ones higher potency. The compound `O=c1[nH]c(-c2nn(Cc3ccccc3F)c3ncccc23)nn1CC(F)(F)F` [Example 18, 5-[1-(2-Fluorobenzyl)-1H-pyrazolo[3,4-b]pyridin-3-yl]-2-(2,2,2-trifluoroethyl)-2,4-dihydro-3H-1,2,4-triazol-3-one] had a 50% inhibitory concentration (IC50) in test [2] of 610 nM.

The compound `O=c1[nH]c(-c2nn(Cc3ccccc3F)c3ncccc23)no1` [Example 1, 3-[1-(2-Fluorobenzyl)-1H-pyrazolo[3,4-b]pyridin-3-yl]-1,2,4-oxadiazol-5(4H)-one] had a 50% inhibitory concentration (IC50) in test [2] of 2100 nM.

With `Fc1ccccc1Cn1nc(-c2noc(=S)[nH]2)c2cccnc21` [Example 7, 3-[1-(2-Fluorobenzyl)-1H-pyrazolo[3,4-b]pyridin-3-yl]-1,2,4-oxadiazole-5(4H)-thione], the midpoint of inhibition in test [2], the IC50, lay at 1100 nM.

The compound `O=c1[nH]c(-c2nn(Cc3ccccc3F)c3ncccc23)ns1` [Example 2, 3-[1-(2-Fluorobenzyl)-1H-pyrazolo[3,4-b]pyridin-3-yl]-1,2,4-thiadiazol-5(4H)-one] displayed a concentration for half-maximal inhibition (IC50) in test [2] of 450 nM.

In the case of `CC(=O)OCCn1nc(-c2nn(Cc3ccccc3F)c3ncccc23)[nH]c1=O` [Example 19, 2-{3-[1-(2-Fluorobenzyl)-1H-pyrazolo[3,4-b]pyridin-3-yl]-5-oxo-4,5-dihydro-1H-1,2,4-triazol-1-yl}ethyl acetate], the IC50 in test [2] is 2100 nM.

Take `O=c1[nH]nc(-c2nn(Cc3ccccc3F)c3ncccc23)o1` [Example 3, 5-[1-(2-Fluorobenzyl)-1H-pyrazolo[3,4-b]pyridin-3-yl]-1,3,4-oxadiazol-2(3H)-one]: in test [2], half-maximal inhibition (IC50) required 610 nM.

(Values after US20100004235A1, “Heterocyclic Substituted, Anellated Pyrazole Derivative and its uses” (BAYER HEALTHCARE AG, priority 2006, published 2010).)
